Calls of active or inactive are those of the source. The rule behind the calls is not given here.
How the values were obtained:
Leishmania amazonensis [1] = assay: Antileishmanial activity against extracellular promastigotes form of Leishmania amazonensis MHOM/ BR/77/LTB0016 after 24 hrs by neubauer chamber analysis; type: functional, organism-based; conditions: MHOM/ BR/77/LTB0016, 24 h
Leishmania braziliensis = assay: Antileishmanial activity against extracellular promastigotes form of Leishmania braziliensis MCAN/BR/97/P142 after 24 hrs by neubauer chamber analysis; type: functional, organism-based; conditions: MCAN/BR/97/P142, 24 h
Leishmania infantum = assay: Antileishmanial activity against extracellular promastigotes form of Leishmania infantum MCAN/BR/98R619 after 24 hrs by neubauer chamber analysis; type: functional, organism-based; conditions: MCAN/BR/98R619, 24 h
[2] = Cytotoxicity against mouse peritoneal macrophages at IC50 for Leishmania amazonensis MHOM/ BR/77/LTB0016; type: cell-based; conditions: peritoneal macrophage cell
Mus musculus [3] = assay: Toxicity in CBA mouse infected with Leishmania amazonensis MHOM/ BR/77/LTB0016 assessed as weight loss at 50 mg/kg, po qd for 30 days administered 4 week post infection measured up to week 21; type: organism-based; parameters: dose 50 mg/kg, route oral; conditions: in vivo
Leishmania amazonensis [4] = assay: Antileishmanial activity against Leishmania amazonensis MHOM/ BR/77/LTB0016 infected in CBA mouse assessed as development of cutaneous lesions at 50 mg/kg, po qd for 30 days administered 4 weeks post infection measured up to week 21; type: functional, organism-based; parameters: dose 50 mg/kg
Mus musculus [5] = assay: Toxicity in CBA mouse infected with Leishmania amazonensis MHOM/ BR/77/LTB0016 assessed as change in monocytes count at 50 mg/kg, po qd for 30 days administered 4 week post infection measured up to week 21; type: organism-based; parameters: dose 50 mg/kg, route oral; conditions: in vivo
Mus musculus [6] = assay: Toxicity in CBA mouse infected with Leishmania amazonensis MHOM/ BR/77/LTB0016 assessed as change in neutrophils count at 50 mg/kg, po qd for 30 days administered 4 week post infection measured up to week 21; type: organism-based; parameters: dose 50 mg/kg, route oral; conditions: in vivo
Mus musculus [7] = assay: Toxicity in CBA mouse infected with Leishmania amazonensis MHOM/ BR/77/LTB0016 assessed as change in leukocytes count at 50 mg/kg, po qd for 30 days administered 4 week post infection measured up to week 21; type: organism-based; parameters: dose 50 mg/kg, route oral; conditions: in vivo
Leishmania amazonensis [8] = assay: Antileishmanial activity against Leishmania amazonensis MHOM/ BR/77/LTB0016 infected in CBA mouse assessed as development of cutaneous lesions at 100 umol/kg, po qd for 30 days administered 4 weeks post infection measured up to week 21; type: functional, organism-based
Mus musculus [9] = assay: Renal toxicity in CBA mouse infected with promastigotes form of Leishmania amazonensis MHOM/ BR/77/LTB0016 assessed as change in creatinine level at 100 umol/kg, po qd for 30 days administered 4 week post infection measured up to week 21; type: organism-based; conditions: in vivo
Mus musculus [10] = assay: Hepatotoxicity in CBA mouse infected with promastigotes form of Leishmania amazonensis MHOM/ BR/77/LTB0016 assessed as change in AST level at 100 umol/kg, po qd for 30 days administered 4 week post infection measured up to week 21; type: toxicity, organism-based; conditions: in vivo
Mus musculus [11] = assay: Toxicity in CBA mouse infected with Leishmania amazonensis MHOM/ BR/77/LTB0016 assessed as change in monocytes count at 100 umol/kg, po qd for 30 days administered 4 week post infection measured up to week 21; type: organism-based; conditions: in vivo
Mus musculus [12] = assay: Toxicity in CBA mouse infected with Leishmania amazonensis MHOM/ BR/77/LTB0016 assessed as weight loss at 29 to 100 umol/kg, po qd for 30 days administered 4 week post infection measured up to week 21; type: organism-based; conditions: in vivo
Mus musculus [13] = assay: Toxicity in CBA mouse infected with Leishmania amazonensis MHOM/ BR/77/LTB0016 assessed as change in neutrophils count at 100 umol/kg, po qd for 30 days administered 4 week post infection measured up to week 21; type: organism-based; conditions: in vivo
Mus musculus [14] = assay: Toxicity in CBA mouse infected with Leishmania amazonensis MHOM/ BR/77/LTB0016 assessed as change in leukocytes count at 100 umol/kg, po qd for 30 days administered 4 week post infection measured up to week 21; type: organism-based; conditions: in vivo
Mus musculus [15] = assay: Hepatotoxicity in CBA mouse infected with promastigotes form of Leishmania amazonensis MHOM/ BR/77/LTB0016 assessed as change in ALT level at 100 umol/kg, po qd for 30 days administered 4 week post infection measured up to week 21; type: toxicity, organism-based; conditions: in vivo

| Compound | IC50 (Leishmania amazonensis [1]) [µM] | IC50 (Leishmania braziliensis) [µM] | IC50 (Leishmania infantum) [µM] | Activity [2] [%] | further results |
| --- | --- | --- | --- | --- | --- |
| Clc1cccc(-n2cc(C3=NCCN3)cn2)c1 | 60 | > 500 | > 500 | 6.46 |  |
| Nc1c(C2=NCCN2)cnn1-c1ccc(Cl)c(Cl)c1 | 381 |  |  | 15.5 |  |
| Nc1c(C2=NCCN2)cnn1-c1cccc(F)c1 | > 500 | > 500 | > 500 |  |  |
| N=C(N)c1ccc(OCCCCCOc2ccc(C(=N)N)cc2)cc1 [PENTAMIDINE] | 10 | 50 | 100 | 31 |  |
| c1ccc(-n2cc(C3=NCCN3)cn2)cc1 | 43 | > 500 | > 500 | 11.26 |  |
| Nc1c(C2=NCCN2)cnn1-c1cccc(Cl)c1 | > 500 | > 500 | > 500 | 15.2 |  |
| Nc1c(C2=NCCN2)cnn1-c1cccc(Br)c1 | 31.3 |  |  |  |  |
| Clc1cc(Cl)cc(-n2cc(C3=NCCN3)cn2)c1 | > 500 | 459 | > 500 | 3.97 |  |
| Fc1cccc(-n2cc(C3=NCCN3)cn2)c1 | 54 |  | > 500 |  |  |
| Nc1c(C2=NCCN2)cnn1-c1ccc(Br)cc1 | > 500 | 272 | > 500 |  |  |
| CC(=O)N1CCN(c2ccc(OCC3COC(Cn4ccnc4)(c4ccc(Cl)cc4Cl)O3)cc2)CC1 (centres undefined) [KETOCONAZOLE] |  |  |  |  | Activity (Mus musculus [3]): Non-toxic; Activity (Leishmania amazonensis [4]): Active; Activity (Mus musculus [5]): Non-toxic; Activity (Mus musculus [6]): Non-toxic; Activity (Mus musculus [7]): Non-toxic |
| Brc1ccc(-n2cc(C3=NCCN3)cn2)cc1 | 30 |  | > 500 | 3.52 |  |
| Nc1c(C2=NCCN2)cnn1-c1cc(Cl)cc(Cl)c1 | 15.5 | 437 | > 500 |  | Activity (Leishmania amazonensis [8]): Active; Activity (Mus musculus [9]): Non-toxic; Activity (Mus musculus [10]): Non-toxic; Activity (Mus musculus [11]): Non-toxic; Activity (Mus musculus [12]): Non-toxic; Activity (Mus musculus [13]): Non-toxic; Activity (Mus musculus [14]): Non-toxic; Activity (Mus musculus [15]): Non-toxic |
| Brc1cccc(-n2cc(C3=NCCN3)cn2)c1 | > 500 |  | > 500 | 11.98 |  |
| Nc1c(C2=NCCN2)cnn1-c1ccccc1 | 365 | 433 | > 500 |  |  |
| Clc1ccc(-n2cc(C3=NCCN3)cn2)cc1Cl | 297 |  | > 500 | 5.32 |  |

Source: ChEMBL document CHEMBL1921680, “Synthesis and antileishmanial evaluation of 1-aryl-4-(4,5-dihydro-1H-imidazol-2-yl)-1H-pyrazole derivatives” (Bioorg Med Chem Lett, 2011)
